Data from patent US20130345204A1, “SUBSTITUTED BICYCLIC CYCLOALKYL PYRAZOLE LACTAM ANALOGS AS ALLOSTERIC MODULATORS OF MGLUR5 RECEPTORS” (Vanderbilt University, priority 2012, published 2013).
Like-named read-outs stand apart in the source and are kept apart here.

Legend:
[1] = biological target: human mGluR5 (Homo sapiens, UniProt P41594); assay: Cell-based functional Ca2+ mobilization assay (FDSS), potentiation of glutamate EC20 response
Source text: Human mGluR5a cDNA in pCMV6-XL6 mammalian expression plasmid was purchased from OriGene Technologies, Inc. (catalogue number SC326357) and subcloned into pcDNA3.1(-). Human embryonic kidney (HEK)293A cells were then transfected with human mGluR5a pcDNA3.1(-) using LipofectAmine-2000 (Invitrogen) and monoclones were selected and tested for functional response using a Ca^2+ mobilization assay. Monoclones were named for the species (“H” for human) plus the location on the plate (e.g. “10H”). […] Cell-lines used were either the H10H or […] cell-lines expressing the human mGluR5 receptor. The following day, the growth medium was removed and the cells were washed with assay buffer containing 1× Hank's balanced salt solution (Invitrogen, Carlsbad, Calif.), 20 mM HEPES, 2.5 mM probenecid, pH 7.4 and left with 20 μL of this reagent. Following this step, the cells were loaded with calcium indicator dye, fluo-4 AM, to a final concentration of 2 μM and incubated for 40-45 min at 37° C. The dye solution was removed and replaced with assay buffer. Cell plates were held for 10-15 min at room temperature and were then loaded into the Functional Drug Screening System 6000 (FDSS 6000, Hamamatsu, Japan). […] Calcium fluorescence measures were recorded as fold over basal fluorescence; raw data was then normalized to the maximal response to glutamate. […] The concentration-response curves of compounds of the present invention, obtained in the presence of EC20 of mGluR5 receptor agonist glutamate to determine positive allosteric modulation, were generated using Microsoft Excel with IDBS XLfit add-ins. The raw data file containing all time points was used as the data source in the analysis template. This was saved by the FDSS as a tab-delimited text file. Data were normalized using a static ratio function (F/F0) for each measurement of the total 350 values per well divided by each well's initial value. […] This is sufficient time to capture the peak amplitude of the cellular Calcium response. […] Each of the three values collected at each concentration of test compound were weighted evenly. Individual values falling outside the 95% prediction limits of the curve fit were automatically excluded from the fit. […] These two methods are in good agreement for curves with a clear plateau at the high concentration range. […] For consistency purposes across the range of potencies observed, all EMax values reported in this application are calculated using the maximum average response at a single concentration. The % EMax value for each compound reported in this application is defined as the maximum % effect obtained in a concentration-response curve of that compound expressed as a percent of the response of a maximally effect concentration of glutamate. […] Table IV below lists specific compounds as well as experimentally determined mGluR5 activity determined in a cell-based. The mGluR5 activity was determined using the metabotropic glutamate receptor activity assays in human embryonic kidney cells as described herein, wherein the human embryonic kidney cells were transfected with human mGluR5. The data in Table III were obtained using the H10H cell-line which expresses recombinant human mGluR5. The compound number corresponds to the compound numbers used in Table I.

[2] = tested on: amphetamine-induced hyperlocomotion; assay: Reversal of amphetamine-induced hyperlocomotion in rat; format: in vivo; details: male Sprague-Dawley rats; compound p.o.; amphetamine 1 mg/kg s.c.
Protocol: The study was carried out using male Sprague-Dawley rats weighing 225 g-275 g, between 2-3 months old (Harlan, Inc., Indianapolis, Ind.). They were kept in the animal care facility certified by the American Association for the Accreditation of Laboratory Animal Care (AALAC) under a 12-hour light/dark cycle (lights on: 6 a.m.; lights off: 6 p.m.) and had free access to food and water. The experimental protocols performed during the light cycle were approved by the Institutional Animals Care and Use Committee of Vanderbilt University and conformed to the guidelines established by the National Research Council Guide for the Care and Use of Laboratory Animals.
Locomotor activity was assessed as mean distance traveled (cm) in Smart Open Field locomotor activity test chambers (Hamilton-Kinder, San Diego, Calif.) with 16×16 photobeams with chambers measuring 43.2 cm (Length)×43.2 cm (Width)×30.5 cm (Height) (Med Associates, St. Albans, Vt.). […] At 60 min, all rats were injected subcutaneously with 1 mg/kg amphetamine or vehicle and then monitored for an additional 60 min. Animals are monitored for a total of 120 minutes.
Data are expressed as the mean (±SEM) distance traveled recorded in 5 min intervals over the test period. The data was analyzed using repeated measures analysis of variance (ANOVA) followed by post-hoc testing using Dunnett's test, when appropriate. […]

[3] = H10H cell-line, maximum % effect as percent of response to maximally effective glutamate, glutamate EC20 present, read-out: Emax (%)
[4] = H10H cell-line, potentiation in presence of glutamate EC20

Sequence of human mGluR5 (P41594 21-1180 isoform P41594-2 limits assumed): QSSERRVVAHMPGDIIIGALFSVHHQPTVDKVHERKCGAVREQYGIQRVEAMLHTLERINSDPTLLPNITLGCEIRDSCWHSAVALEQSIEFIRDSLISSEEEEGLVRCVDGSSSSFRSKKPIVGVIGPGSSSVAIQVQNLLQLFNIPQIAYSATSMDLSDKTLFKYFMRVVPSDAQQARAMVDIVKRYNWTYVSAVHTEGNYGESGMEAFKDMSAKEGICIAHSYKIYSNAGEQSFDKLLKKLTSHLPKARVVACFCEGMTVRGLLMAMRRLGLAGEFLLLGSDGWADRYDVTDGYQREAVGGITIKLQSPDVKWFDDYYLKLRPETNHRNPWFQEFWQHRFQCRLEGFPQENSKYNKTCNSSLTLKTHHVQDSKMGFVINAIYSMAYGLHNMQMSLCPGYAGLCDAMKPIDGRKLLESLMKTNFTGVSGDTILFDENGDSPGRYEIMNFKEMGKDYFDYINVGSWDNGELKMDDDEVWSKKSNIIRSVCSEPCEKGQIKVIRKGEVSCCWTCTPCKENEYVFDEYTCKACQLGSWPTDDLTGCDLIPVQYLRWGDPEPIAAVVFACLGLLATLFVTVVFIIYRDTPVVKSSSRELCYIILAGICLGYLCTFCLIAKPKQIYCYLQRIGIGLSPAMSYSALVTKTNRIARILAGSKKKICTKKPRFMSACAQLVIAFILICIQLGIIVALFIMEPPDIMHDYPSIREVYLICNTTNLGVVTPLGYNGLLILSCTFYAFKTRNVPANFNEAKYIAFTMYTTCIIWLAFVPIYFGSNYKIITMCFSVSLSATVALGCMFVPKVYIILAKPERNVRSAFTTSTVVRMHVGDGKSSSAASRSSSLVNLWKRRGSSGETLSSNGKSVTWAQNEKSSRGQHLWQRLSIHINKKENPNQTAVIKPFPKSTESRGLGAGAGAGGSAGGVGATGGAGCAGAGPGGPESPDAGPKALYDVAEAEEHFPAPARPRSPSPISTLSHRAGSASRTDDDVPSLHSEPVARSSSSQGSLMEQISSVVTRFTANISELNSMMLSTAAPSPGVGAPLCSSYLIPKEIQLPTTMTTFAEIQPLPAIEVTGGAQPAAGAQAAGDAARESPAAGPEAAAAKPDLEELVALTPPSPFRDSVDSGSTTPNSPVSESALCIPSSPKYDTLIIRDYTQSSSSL

| SMILES | Emax [1, 3] | EC50 [1, 4] | other results |
| --- | --- | --- | --- |
| O=C1c2cc(COc3ccccc3)nn2CCN1C1COC1 [Compound 8] | 30% | > 10000 nM |  |
| C[C@@H]1Cn2nc(COc3ccccc3)cc2C(=O)N1CC1CCC1 [Compound 6] | 76% | 91.2 nM |  |
| O=C1c2cc(COc3ccccc3)nn2CCN1CC1CC1(F)F (stereo in doubt) [Compound 2, (S)-5-((2,2-difluorocyclopropyl)methyl)-2-(phenoxymethyl)-6,7-dihydropyrazolo[1,5-a]pyrazin-4(5H)-one] |  |  | reversal of amphetamine-induced hyperlocomotion [2]: effective in reducing amphetamine-induced hyperlocomotion |
| O=C1c2cc(COc3ccccc3)nn2CCN1C[C@H]1CC1(F)F [Compound 1, (R)-5-((2,2-difluorocyclopropyl)methyl)-2-(phenoxymethyl)-6,7-dihydropyrazolo[1,5-a]pyrazin-4(5H)-one] | 55% | 234 nM | reversal of amphetamine-induced hyperlocomotion [2]: effective in reducing amphetamine-induced hyperlocomotion |
| O=C1c2cc(COc3ccccc3)nn2CCN1C1CCCOC1 (racemic) [Compound 20] | 52% | ≥ 10000 nM |  |
| O=C1c2cc(COc3ccccc3)nn2CCN1C1CCC1 [Compound 9] | 29% | 324 nM |  |
| O=C1c2cc(COc3cccc(F)c3)nn2CCN1C[C@@H]1CC1(F)F [Compound 21] | 65% | 110 nM |  |
| O=C1c2cc(COc3ccccc3)nn2CCN1CC1CC(F)(F)C1 [Compound 32] |  |  | Emax (%) ([1]; H10H cell-line, maximum % effect as percent of response to maximally effective glutamate, glutamate EC20 present): 73%; pEC50 [1, 4]: 6.19 |
| CC1CCn2nc(COc3ccccc3)cc2C(=O)N1CC1CC1 (stereo not shown) [Compound 23] | 57% | 398 nM | melting point: 68.6 °C |
| O=C1c2cc(COc3ccccc3)nn2CCN1[C@H]1CCCNC1 [Compound 33] |  | > 30200 nM | Emax [1]: 19% |
| CC1(CN2CCn3nc(COc4ccccc4)cc3C2=O)COC1 [Compound 31] | 71% | 1100 nM |  |
| O=C1c2cc(COc3ccccc3)nn2CCN1C[C@@H]1CC1(F)F [Compound 2, (S)-5-((2,2-difluorocyclopropyl)methyl)-2-(phenoxymethyl)-6,7-dihydropyrazolo[1,5-a]pyrazin-4(5H)-one] | 65% | 380 nM |  |
| O=C1c2cc(COc3ccccc3)nn2CCCN1CC1CC1(F)F (racemic) [Compound 25] | 58% | 389 nM | melting point: 102.2 °C |
| O=C1c2cc(COc3ccccc3)nn2CCN1C1CCCC1 [Compound 7] | 48% | 195 nM |  |
| CC1(C)CN(CC2CC2)C(=O)c2cc(COc3ccccc3)nn2C1 [Compound 24] | 38% | ≥ 10000 nM | melting point: 96.5 °C |
| O=C1c2cc(COc3ccccc3)nn2CCN1CC1CCCCC1 [Compound 18] | 79% | 52.5 nM |  |
| O=C1c2cc(COc3ccccc3)nn2CCN1C1CCOCC1 [Compound 11] | 46% | ≥ 10000 nM |  |
| O=C1c2cc(COc3ccccc3)nn2CCN1C1CCNCC1 [Compound 37] | 22% | > 30200 nM |  |
| O=C1c2cc(COc3ccccc3)nn2CCN1[C@H]1CCNC1 [Compound 34] | 24% | > 30200 nM |  |
| O=C1c2cc(COc3ccccc3)nn2CCN1C1CCCCC1 [Compound 13, 5-cyclohexyl-2-(phenoxymethyl)-6,7-dihydropyrazolo[1,5-a]pyrazin-4(5H)-one] | 58% | 145 nM |  |
| O=C1c2cc(COc3ccccc3)nn2CCN1CC1CC(F)(F)C1 [Compound 10] | 72% | 646 nM |  |
| O=C1c2cc(COc3ccccc3)nn2CCCN1CC1CC1 [Compound 22, 5-(cyclopropylmethyl)-2-(phenoxymethyl)-5,6,7,8-tetrahydro-4H-pyrazolo[1,5-a][1,4]diazepin-4-one] | 59% | 380 nM | melting point: 126.4 °C |
| C[C@@H]1Cn2nc(COc3ccccc3)cc2C(=O)N1CC1CC1(F)F (stereo partly shown) [Compound 4] | 72% | 871 nM |  |
| CC1CN(CC2CC2)C(=O)c2cc(COc3ccccc3)nn2C1 (stereo not shown) [Compound 28] | 30% | > 30200 nM | melting point: 67.4 °C |
| O=C1c2cc(COc3cccc(F)c3)nn2CCN1C[C@H]1CC1(F)F [Compound 14, (R)-5-((2,2-difluorocyclopropyl)methyl)-2-((3-fluorophenoxy)methyl)-6,7-dihydropyrazolo[1,5-a]pyrazin-4(5H)-one] | 51% | 158 nM |  |
| O=C1c2cc(COc3ccccc3)nn2CCN1C1CCOC1 (racemic) [Compound 12] | 25% | ≥ 10000 nM |  |
| O=C1c2cc(COc3ccccc3)nn2CCN1C1Cc2ccccc2C1 [Compound 17] | 77% | 58.9 nM |  |
| CC1(C)CCC(N2CCn3nc(COc4ccccc4)cc3C2=O)CC1 [Compound 16] | 71% | 97.7 nM |  |
